Experimental data published in patent publication US11576979B2, “Pyrrolobenzodiazepine prodrugs and antibody conjugates thereof” (GENENTECH, INC., priority 2016, dated 2023).
Values joined by “and” are separate entries in the source; they are usually repeats but may differ in a detail not shown here. Equal values may be shown once. Read-outs that look alike come from different tables or passages of the source.

Columns and labels:
[1] = system: KPL-4; assay: CELLTITER GLO cell proliferation assay (Example 6); format: cell-based; settings: data in parenthesis = repeat evaluations
Experimental: (§1) The toxicity of PBD monomer disulfide prodrugs and diaphorase prodrugs were evaluated against KPL-4, WSU-DLCL2, HCT-116, HCC1395 and Jurkat cell cultures. […] KPL-4 cells further have a high expression of DTD on the order of about 839 nRPKM (where nRPKM refers to normalized reads per Kb of transcript length per million mapped read).
(§2) Potency of the disulfide and DT-diaphorase prodrugs was measured by a cell proliferation assay employing the following protocol (CELLTITER GLO™ Luminescent Cell Viability Assay, Promega Corp.). First, an aliquot of 40 ul of cell culture containing about 8000 cells of WSU-DLCL2 cells (low NQO1 gene and GSH level), 4000 cells of KPL-4 (high NQO1 gene and GSH level), HCT-116 cells, HCC1395 cells or Jurkat cells in RPMI-1640 culture medium (supplemented with 10% fetal bovine serum, 2 mM glutamine, 50 uM cystine, and 0.015 g/L L-methionine) was deposited in each well of a 384-well flat clear bottom white polystyrene tissue culture-treated microplates (Corning, N.Y.). Second, control wells were prepared containing medium with and without cells. Third, compounds with and without disulfide or DT-diaphorase prodrugs (n=3) were added to the experimental wells using ECHO acoustic liquid handling technology (Labcyte Inc, Sunnyvale, Calif.) to create a 10-point dose-response curve in triplicate with 1:3× serial dilution. Fourth, cells were cultured in a humidified incubator set at 37° C. and maintaining an atmosphere of 5% CO2. Fifth, the plates were equilibrated to room temperature for approximately 30 minutes. Sixth, a volume of CELLTITER GLO™ Reagent equal to the volume of cell culture medium present in each well was added. Seventh, the contents were mixed for 10 minutes on an orbital shaker in the dark to induce cell lysis. Eighth, the plate was incubated at room temperature for 30 minutes to stabilize the luminescence signal. Ninth, luminescence was recorded and reported in graphs as % activity where RLU (relative luminescence units) was normalized to controls (no compound control minus no cell control). Tenth, data was plotted as individual points for each replicate (n=3) for each antibody as the mean of luminescence for each set of replicates, with standard deviation error bars.

[2] = system: HCT-116; assay: CELLTITER GLO cell proliferation assay (Example 6); format: cell-based; settings: Homo sapiens, HCT-116; Table 4; read-out: IC50 potency HCT-116
Experimental: as §1, §2

[3] = system: WSU-DLCL2; assay: CELLTITER GLO cell proliferation assay (Example 6); format: cell-based; settings: Homo sapiens, data in parenthesis = repeat evaluations
Experimental: as §1, §2

[4] = system: double strand DNA Oligos 1 and 2; assay: DNA oligo binding, LC/MS/UV; settings: 100 uM compound, 100 uM DNA, 1 hour, 37 C
Experimental: For DNA binding determination, the compounds were incubated at 100 μM with 100 μM double strand DNA Oligos 1 and 2 for 1 hour in 10 mM Bis-Tris, pH 7.1 at 37° C. The single strand DNA Oligos (5′-TATAGAATCTATA-3′ and 3′-ATATCTTAGATAT-5′) were synthesized at Genentech. The samples were analyzed by LC/MS/UV (210-450 nm) on Sciex TripleTOF 5600 on a Hypersil Gold C18 column (100×2.1, 1.9 Thermo Scientific). The column was eluted at 0.4 mL/min by a gradient of buffer A (50 mM hexafluoro-isopropanol and 15 mM diisopropylethylamine) to buffer B (50% A and 50% of 1:1 methanol:acetonitrile), 5% 0-0.5 min, 5-25% B 0.5-25 min, 25-95% B 25-40 min, and to 95% B 40-42 min. The % remaining was an average of the starting DNA oligos remaining in incubations (n=2). The products were characterized by LC/MS in a negative ESI ion mode.

[5] = system: SK-BR-3; assay: CellTiter-Glo toxicity, 3 days (Example 7); format: cell-based; settings: Homo sapiens, SK-BR-3, 72 h
Experimental: The toxicity of PBD monomer disulfide prodrugs 1 to 4, PBD dimer disulfide prodrugs 1 and 4, PBD monomer control 1 and PBD dimer control 1 were evaluated against SK-BR-3 cell cultures. […] The HER2-positive breast cancer cell line, SK-BR-3, was obtained internally at Genentech after having been verified by sequence analysis. The cells were grown at 37 Celsius in DMEM+10% FBS supplemented with 2 mM L-glutamine for the duration of this assay. On the first day of the experiment, designated “Day −1”, SK-BR-3 cells were harvested from tissue culture flasks, counted, and then seeded into 96-well plates at a concentration of 7,500 cells per well. The next day, designated “Day 0”, cell culture media was removed from the cells and replaced with 100 uL of fresh media containing a serial dilution (1:3) of the compounds in Table 5 below. The plates were then returned to the 37 Celsius incubator and allowed to incubate for 3 days. On “Day 3” of the assay, the plates were removed from the incubator and allowed to equilibrate to room temperature before adding 100 uL of room-temperature CellTiter-Glo reagent (Promega). The plates were then agitated at 300 rpm for 10 minutes. The luminescence signal generated from this reaction was recorded on an Envision plate reader (Perkin-Elmer). The data were arranged in Excel (Microsoft) and graphed in Kaleidagraph (Synergy Software).

[6] = system: UACC-257; assay: CellTiter-Glo toxicity, 4 days (Example 9); format: cell-based; settings: Homo sapiens, UACC-257, 96 h, 4 days of drug incubation; Table 7A
Experimental: (§3) The toxicity of various PBD monomer disulfide prodrugs and PBD dimer disulfide prodrugs was evaluated on UACC-257, Igrov-1 and A2058 cell lines. Cells were seeded in 384-well plate and treated with drug 24 hours later. After 4 days of drug incubation, the cell viability was determined using Promega CellTiter-Glo luminescent reagent, which measures ATP level (an indirect measure of cell number). The luminescent intensity was measured on PerkinElmer Envision reader. The relative cell viability was calculated by normalizing to non-drug treatment control and was graphed using KleidaGraph software package. IC50 value was determined as the concentration to obtain 50% of the maximum cell killing.

[7] = system: Igrov-1; assay: CellTiter-Glo toxicity, 4 days (Example 9); format: cell-based; settings: Homo sapiens, IGROV-1, 96 h, 4 days of drug incubation; Table 7A
Experimental: as §3

[8] = Disulfide cleavage by glutathione (GSH), LC/MS; format: physicochemical; settings: 15 uM compound, 4 mM GSH, pH 7.0, 37 C
Experimental: (§4) For disulfide cleavage determination, the compounds were incubated at 15 μM with 0.2 mM cysteine or 4 mM GSH in 100 mM Tris buffer pH 7.0 containing 5% methanol at 37° C. Aliquots were taken at specified time points and the samples were analyzed by LC/MS on Sciex TripleTOF 5600 on a Hypersil Gold C18 column (100×2.1, 1.9 Thermo Scientific). The column was eluted by a gradient of buffer A (0.1% formic acid in 10 mM ammonium acetate) to buffer B (0.1% formic acid in 10 mM ammonium acetate in 90% acetonitrile), 5% B 0-0.5 min, 5-25% B 0.5-8 min, 25-75% B 8-13 min, and 75-95% B 13-13.5 min, 95% B 13.5-14.5 min, 95-5% B 14.5-15 min at 0.4 mL/min. All products were separated and characterized by LC/MS/MS in a positive ESI ion mode. All analytes had the protonated molecular MH+ as the major species with little source fragmentation. Full scan accurate mass peak areas were used to estimate relative abundance of each component.

[9] = Disulfide cleavage by cysteine, LC/MS; format: physicochemical; settings: 15 uM compound, 0.2 mM cysteine, pH 7.0, 37 C
Experimental: as §4

[10] = system: A2058; assay: CellTiter-Glo toxicity, 4 days (Example 9); format: cell-based; settings: Homo sapiens, A2058, 96 h, 4 days of drug incubation; Table 7A
Experimental: as §3

[11] = KPL4, read-out: IC50 potency KPL-4, Table 4
[12] = WSUDLCL2, read-out: IC50 potency WSU-DLCL2, Table 4

Structure (SMILES)	IC50 ([1]; KPL4, Table 4, read-out: IC50 potency KPL-4) [µM]	IC50 [2] [µM]	IC50 ([3]; WSUDLCL2, Table 4, read-out: IC50 potency WSU-DLCL2) [µM]	% DNA oligo remaining [4] [%]	IC50 ([5]; 3 days, read-out: SK-BR-3 IC50) [nM]	IC50 [6] [µM]	IC50 [7] [µM]	IC50 ([5]; read-out: SK-BR-3 IC50 (nM)) [nM]	% Remaining at 24 h by GSH [8]	% Remaining at 24 h by Cys [9] [%]	IC50 [1, 11] [µM]	IC50 [3, 12] [µM]	IC50 [10] [µM]
C=C1C[C@H]2C=Nc3cc(OCCCCCOc4cc5c(cc4OC)C(=O)N4CC(=C)C[C@H]4C(O)N5C(=O)OCc4cn(C)c5c4C(=O)C(OC)=CC5=O)c(OC)cc3C(=O)N2C1 (stereo partly drawn) [PBD dimer diaphorase prodrug 3]	0.00187	0.00123	0.00024	–	–	–	–	–	–	–	–	–	–
C=C1C[C@H]2C=Nc3cc(OCCCCCOc4cc5c(cc4OC)C(=O)N4CC(=C)C[C@H]4C(O)N5C(=O)OCC4(SSCC)CCC4)c(OC)cc3C(=O)N2C1 (stereo partly drawn) [PBD dimer disulfide prodrug 1]	–	–	–	>99.5	2.39	0.0022	0.00021	–	–	–	–	–	–
C=C1C[C@H]2C(O)N(C(=O)OCC3(SSCC)CCC3)c3cc(OCCCCCOc4cc5c(cc4OC)C(=O)N4CC(=C)C[C@H]4C(O)N5C(=O)OCC4(SSCC)CCC4)c(OC)cc3C(=O)N2C1 (stereo partly drawn) [PBD dimer disulfide prodrug 4]	–	–	–	–	–	0.0078	0.0025	3.09	–	–	–	–	–
C=C1C[C@H]2C(O)N(C(=O)OCCSSCC)c3cc(OC)c(OC)cc3C(=O)N2C1 (stereo partly drawn) [PBD monomer disulfide prodrug 1]	–	–	–	–	–	0.276	0.123	331	0.5%	17.9	0.324	0.274	0.0829
C=C1C[C@H]2C(O)N(C(=O)OCCSSC(C)C)c3cc(OC)c(OC)cc3C(=O)N2C1 (stereo partly drawn) [PBD monomer disulfide prodrug 2]	–	–	–	–	–	1.86	1.87	1760	0.4% and 0%	77.6	0.497	1.02	0.635
C=C1C[C@H]2C(O)N(C(=O)OCC3(SSCC)CCC3)c3cc(OC)c(OC)cc3C(=O)N2C1 (stereo partly drawn) [PBD monomer disulfide prodrug 3]	–	–	–	–	–	0.356	0.254	616	2.90%	73.5	0.36	0.531	0.0752
C=C1C[C@H]2C(O)N(C(=O)OCC(C)(C)SSC(C)(C)C)c3cc(OC)c(OC)cc3C(=O)N2C1 (stereo partly drawn) [PBD monomer disulfide prodrug 4]	–	–	–	–	–	19.2	12.6	> 10000	99.9%	99.9	> 10	> 10	8.11
